Here are results for four compounds from patent publication US20190382432A1 (Synbias Pharma AG, priority 2013, published 2019).

Counter-ions that a name gives are not always drawn. Marks after values point to notes of the source that are not given here.

Common to all, as to type: physicochemical
A short description of data set [1]: Hygroscopic capacity: water content by Karl-Fischer titration after exposure to temperature and relative humidity. The conditions noted are these: 25 or 40 °C, 40-90% rh. As for the experimental part: Coulometric Karl-Fischer titration (KFT; for determining the water content) was performed with an external drying oven (Metrohm 707 KF; operated at 140° C. with N2 purge). The samples were precisely weighed on an analytical balance (10^−5 g).
The testing was performed as described in the ICH guidelines.

A short description of data set [2]: Thermostability on storage at 25, 40 and 100 °C per ICH Q1A (R2), HPLC. As for the experimental part:
HPLC and GC analyses were performed according to standard protocols.
The testing was performed as described in the ICH guidelines (cf. inter alia ICH Guideline Q1A (R2)).

A short description of data set [3]: Particle size distribution by laser diffraction analysis (Mastersizer 2000). To be noted: wet laser diffraction in acetone; listed as Sample 2, hydrochloride. As for the experimental part:
Laser diffraction analysis was performed in form of wet laser diffraction in acetone: 1750 rpm, 3×20 s cycle time, 60 s background time, without sonication, and 5 min stirring time using a Mastersizer 2000 Particle Size Analyzer (Malvern Instruments Ltd., Malvern, UK) according to the manufacturer's instructions.

A short description of data set [4]: Thermostability under stress conditions (storage at 100 °C for one month), HPLC. As for the experimental part:
Sample S was prepared according to the present invention, as described in Example 3 above. Sample M1 was prepared according to Example 1 of WO 2012/163508 A1, as described in Example 7 above. Finally, Sample M2 was prepared according to Example 2 of WO 2012/163508 A1, as described in Example 7 above.
The samples were exposed to a temperature of 100° C. for the time period (in weeks) indicated. The testing was performed as described in the ICH Guideline Q1A (R2) (cf. above). The amount of the degradation product (i.e. doxorubicinone) produced as well as those of various impurities (i.e., doxorubicin and four different impurities of yet unknown identity; all given in % (w/w); “n.d.”=not determined) was determined by HPCL analysis (“LT”=less than).

The mark [5] stands for this setting: 25 °C, 12 months, hydrochloride.
Where [6] appears, read: 25 °C, 24 months, hydrochloride.
[7] abbreviates: 100 °C, 0 months, hydrochloride.

On to `COc1cccc2c1C(=O)c1c(O)c3c(c(O)c1C2=O)C[C@@](O)(C(=O)CO)C[C@@H]3O[C@H]1C[C@H](N)[C@H](O)[C@H](C)O1` [epirubicin hydrochloride monohydrate, epirubicin hydrochloride], for which the “Hygroscopic capacity, in words” value in data set [1] (up to 15 days) is recorded as “does not exhibit any significant hygroscopic capacity”. In addition, in data set [2] (25 °C), the “Stability over a time period (overall shelf-life)” value was at least 5 years. The Doxorubicinone result is “LT 0.05 % (w/w)” in data set [2] (25 °C, 0 months); “LT 0.05 % (w/w)” in data set [2] (25 °C, 1 month, hydrochloride); “LT 0.05 % (w/w)” in data set [2] (25 °C, 3 months, hydrochloride); “LT 0.05 % (w/w)” in data set [2] (25 °C, 6 months, hydrochloride); “LT 0.05 % (w/w)” in data set [2] (setting [5]); “LT 0.05 % (w/w)” in data set [2] (setting [6]). Moreover, the Doxorubicinone entry is recorded as “LT 0.05 % (w/w)” in data set [2] (25 °C, 36 months); “LT 0.05 % (w/w)” in data set [2] (25 °C, 48 months); “LT 0.05 % (w/w)” in data set [2] (25 °C, 60 months); “LT 0.05 % (w/w)” in data set [2] (40 °C, 0 months); “LT 0.05 % (w/w)” in data set [2] (40 °C, 1 month, hydrochloride); “LT 0.05 % (w/w)” in data set [2] (40 °C, 3 months, hydrochloride). Further, the Doxorubicinone entry in data set [2] (40 °C, 6 months, hydrochloride) is on record as “LT 0.05* % (w/w)”; in data set [2] (100 °C, 0 months) it was “LT 0.05 % (w/w)”; in data set [2] (100 °C, 1 month, hydrochloride), “LT 0.5** % (w/w)”; in data set [2] (100 °C, 1 month, listed as crystalline monohydrate of epirubicin hydrochloride, hydrochloride), “less than 0.5 % (w/w)”. Also, the “Assay (intact epirubicin hydrochloride)” value is given as 99.2 % (w/w) in data set [2] (25 °C, 0 months, hydrochloride); 99.4 % (w/w) in data set [2] (25 °C, 1 month, hydrochloride); 99.4 % (w/w) in data set [2] (25 °C, 3 months, hydrochloride); 99.2 % (w/w) in data set [2] (25 °C, 6 months, hydrochloride); 99.0 % (w/w) in data set [2] (setting [5]); 99.4 % (w/w) in data set [2] (setting [6]). Besides, the “Assay (intact epirubicin hydrochloride)” value is recorded as 99.1 % (w/w) in data set [2] (25 °C, 36 months); 99.1 % (w/w) in data set [2] (25 °C, 48 months); 99.2 % (w/w) in data set [2] (25 °C, 60 months); 99.2 % (w/w) in data set [2] (40 °C, 0 months, hydrochloride); 99.2 % (w/w) in data set [2] (40 °C, 1 month, hydrochloride); 99.1 % (w/w) in data set [2] (40 °C, 3 months, hydrochloride). The “Assay (intact epirubicin hydrochloride)” value in data set [2] (40 °C, 6 months, hydrochloride) is given as 99.3 % (w/w); in data set [2] (setting [7]), 99.2 % (w/w); in data set [2] (100 °C, 1 month, hydrochloride), 98.3 % (w/w). Further, the “Stability over a time period (thermostability)” value in data set [2] (40 °C) is listed as at least 6 months.

In the case of `COc1cccc2c1C(=O)c1c(O)c3c(c(O)c1C2=O)C[C@@](O)(C(=O)CO)C[C@@H]3O[C@H]1C[C@H](N)[C@H](O)[C@H](C)O1` [Example 2, epirubicin hydrochloride], in data set [1] (data not shown), the “Hygroscopic capacity compared with the Example 1 monohydrate (TABLE 6-1), in words” value is recorded as “almost identical results”. For the same compound, the “Thermostability compared with the Example 1 monohydrate (TABLE 5-1), in words” value in data set [2] (25, 40, 100 °C, data not shown) is “almost identical results”.

For `COc1cccc2c1C(=O)c1c(O)c3c(c(O)c1C2=O)C[C@@](O)(C(=O)CO)C[C@@H]3O[C@H]1C[C@H](N)[C@H](O)[C@H](C)O1` [epirubicin hydrochloride trihydrate, epirubicin hydrochloride], the Doxorubicinone entry in data set [2] (25 °C, 0 months) was “LT 0.05 % (w/w)”; in data set [2] (25 °C, 1 month, hydrochloride), 0.06 % (w/w); in data set [2] (25 °C, 3 months, hydrochloride), 0.09 % (w/w); in data set [2] (25 °C, 6 months, hydrochloride), 0.22 % (w/w); in data set [2] (setting [5]), 0.42 % (w/w); in data set [2] (setting [6]) it was 0.62 % (w/w). Besides, the Doxorubicinone entry is given as “LT 0.05 % (w/w)” in data set [2] (40 °C, 0 months); 0.22 % (w/w) in data set [2] (40 °C, 1 month, hydrochloride); 0.45 % (w/w) in data set [2] (40 °C, 3 months, hydrochloride); 0.78* % (w/w) in data set [2] (40 °C, 6 months, hydrochloride); “LT 0.05 % (w/w)” in data set [2] (100 °C, 0 months); 4.7** % (w/w) in data set [2] (100 °C, 1 month, hydrochloride). The “Assay (intact epirubicin hydrochloride)” value is recorded as 98.8 % (w/w) in data set [2] (25 °C, 0 months, hydrochloride); 98.7 % (w/w) in data set [2] (25 °C, 1 month, hydrochloride); 98.7 % (w/w) in data set [2] (25 °C, 3 months, hydrochloride); 98.4 % (w/w) in data set [2] (25 °C, 6 months, hydrochloride); 98.5 % (w/w) in data set [2] (setting [5]); 98.0 % (w/w) in data set [2] (setting [6]). Also, the “Assay (intact epirubicin hydrochloride)” value in data set [2] (40 °C, 0 months, hydrochloride) is listed as 98.8 % (w/w); in data set [2] (40 °C, 1 month, hydrochloride), 98.4 % (w/w); in data set [2] (40 °C, 3 months, hydrochloride), 98.2 % (w/w); in data set [2] (40 °C, 6 months, hydrochloride), 98.0 % (w/w); in data set [2] (setting [7]), 98.8 % (w/w); in data set [2] (100 °C, 1 month, hydrochloride), 89.5 % (w/w). In data set [2] (within six months storage at 25 °C), the “Degradation on storage, in words” value is “significant degradation”.

With `COc1cccc2c1C(=O)c1c(O)c3c(c(O)c1C2=O)C[C@@](O)(C(=O)CO)C[C@@H]3O[C@H]1C[C@H](N)[C@H](O)[C@H](C)O1` [Example M2, epirubicin hydrochloride], the “D(v/0.5), mean diameter based on the volume of the particles” value in data set [3] came to 9.04 μm. For the same compound, in data set [4] (0 weeks), the “Doxorubicin (NMT 1%)” value is reported as 0.29 % (w/w), the “Doxorubicinone (Aglycone) (NMT 1%)” value was < 0.05 % (w/w) and the “Total Impurities (NMT 2%)” value is 0.30 % (w/w). Moreover, in data set [4] (1 week, hydrochloride), the “Doxorubicin (NMT 1%)” value is reported as 0.27 % (w/w), the “Doxorubicinone (Aglycone) (NMT 1%)” value is given as 0.54 % (w/w), the “Total Impurities (NMT 2%)” value is recorded as 1.30 % (w/w) and the “Unknown impurity RRT 1.2 (NMT 0.15%)” value is reported as 0.12 % (w/w). In addition, in data set [4] (1 week, hydrochloride), the “Unknown impurity RRT 1.6 (NMT 0.15%)” value was 0.12 % (w/w) and the “Unknown impurity RRT 1.7 (NMT 0.15%)” value is listed as 0.14 % (w/w). For the same compound, in data set [4] (2 weeks), the “Doxorubicin (NMT 1%)” value was 0.32 % (w/w). In data set [4] (2 weeks, hydrochloride), the “Doxorubicinone (Aglycone) (NMT 1%)” value was 0.59 % (w/w), the “Total Impurities (NMT 2%)” value is reported as 1.70 % (w/w), the “Unknown impurity RRT 1.1 (NMT 0.15%)” value is on record as 0.14 % (w/w) and the “Unknown impurity RRT 1.2 (NMT 0.15%)” value is 0.12 % (w/w). In data set [4] (2 weeks, hydrochloride), the “Unknown impurity RRT 1.6 (NMT 0.15%)” value is on record as 0.21 % (w/w) and the “Unknown impurity RRT 1.7 (NMT 0.15%)” value was 0.18 % (w/w). Also, in data set [4] (3 weeks, hydrochloride), the “Doxorubicin (NMT 1%)” value was 0.32 % (w/w), the “Doxorubicinone (Aglycone) (NMT 1%)” value is on record as 0.61 % (w/w), the “Total Impurities (NMT 2%)” value is recorded as 1.80 % (w/w) and the “Unknown impurity RRT 1.1 (NMT 0.15%)” value is recorded as 0.13 % (w/w). Further, in data set [4] (3 weeks, hydrochloride), the “Unknown impurity RRT 1.2 (NMT 0.15%)” value is given as 0.13 % (w/w), the “Unknown impurity RRT 1.6 (NMT 0.15%)” value is on record as 0.27 % (w/w) and the “Unknown impurity RRT 1.7 (NMT 0.15%)” value is listed as 0.22 % (w/w). In data set [4] (4 weeks), the “Doxorubicin (NMT 1%)” value is listed as 0.33 % (w/w). For the same compound, in data set [4] (4 weeks, hydrochloride), the “Doxorubicinone (Aglycone) (NMT 1%)” value is on record as 0.60 % (w/w), the “Total Impurities (NMT 2%)” value is recorded as 2.1* % (w/w), the “Total amount of unknown impurities” value is 1.1 % (w/w) and the “Unknown impurity RRT 1.1 (NMT 0.15%)” value was 0.21 % (w/w). In data set [4] (4 weeks, hydrochloride), the “Unknown impurity RRT 1.2 (NMT 0.15%)” value is given as 0.16 % (w/w), the “Unknown impurity RRT 1.6 (NMT 0.15%)” value is on record as 0.39 % (w/w) and the “Unknown impurity RRT 1.7 (NMT 0.15%)” value is listed as 0.26 % (w/w).
